Reference: patent publication US11491120B2, “Pharmacological prophylactics against stress-induced affective disorders in females” (The Trustees of Columbia University in the City of New York, priority 2017, dated 2022)
“Also recorded” adds a separate entry of the source.

System: female 129S6/SvEv mice
Experiment: Forced swim test (FST), immobility time, after stress
Conditions: for Immobility in the FST (Day 1 and Day 2) vs saline: drug administered 1 hour after 3-shock CFC stressor; for Prophylactic efficacy against stress-induced depressive-like behavior: single injection 1 week before stressor
[1] = Ovariectomized cohort, 1 week prophylactic drug, Forced Swim Test Day 1, OVX mice, K (10), (2R,6R)-HNK (0.025)
[2] = Ovariectomized cohort, 1 week prophylactic drug, Forced Swim Test Day 1, Sham mice, K (10), (2R,6R)-HNK (0.025)
[3] = Ovariectomized cohort, 1 week prophylactic drug, Forced Swim Test Day 1, Sham vs OVX, same drug, K (10), (2R,6R)-HNK (0.025)
[4] = Ovariectomized, E2/P4 replacement, 1 week prophylactic drug, Forced Swim Test Day 2, K (10), (2R,6R)-HNK (0.025), FIG. 5F
[5] = Ovariectomized, same drug, hormone Vehicle vs. E2/P4 replacement, 1 week prophylactic drug, Forced Swim Test Day 2, K (10), (2R,6R)-HNK (0.025), FIG. 5F
[6] = Sal vs. K (2.5), Fisher's PLSD, 3 day prophylactic drug/Forced Swim Test Day 1
[7] = Sal vs. K (10), Fisher's PLSD, 1 week prophylactic drug, learned helplessness stress, Forced Swim Test Day 1
[8] = Sal vs. K (10), Fisher's PLSD, 3 day prophylactic drug/Forced Swim Test Day 1
[9] = Sal vs. K (10), Fisher's PLSD, Antidepressant drug/Forced Swim Test Day 2
[10] = Sal vs. K (30), Fisher's PLSD, 3 day prophylactic drug/Forced Swim Test Day 1
[11] = Sham-operated females, 1 week prophylactic drug, Forced Swim Test Day 2, K (10), (2R,6R)-HNK (0.025), FIG. 5C
[12] = female mice, listed as (R, S)-ketamine

## CNC1(c2ccccc2Cl)CCCCC1=O (racemic) [(R,S)-ketamine, (RS)-2-(2-chlorophenyl)-2-(methylamino)cyclohexanone]
[1]
  p, Immobility Time (min 1-6), OVX Sal vs OVX drug: 0.0920
  p, Immobility Time Average (min 3-6), Fisher's PLSD, OVX Sal vs OVX drug: 0.0570
[2]
  * (significance), Immobility Time (min 1-6), Sham Sal vs Sham drug: * (* p<0.05)
  * (significance), Immobility Time Average (min 3-6), Fisher's PLSD, Sham Sal vs Sham drug: * (* p<0.05)
  p, Immobility Time (min 1-6), Sham Sal vs Sham drug: 0.0140
  p, Immobility Time Average (min 3-6), Fisher's PLSD, Sham Sal vs Sham drug: 0.0114
[3]
  * (significance), Immobility Time Average (min 3-6), Fisher's PLSD, Sham drug vs OVX drug: * (* p<0.05)
  p, Immobility Time (min 1-6), Sham drug vs OVX drug: 0.0533
  p, Immobility Time Average (min 3-6), Fisher's PLSD, Sham drug vs OVX drug: 0.0233
Ovariectomized females, 1 week prophylactic drug, Forced Swim Test Day 2, K (10), (2R,6R)-HNK (0.025), FIG. 5C
  p, Fisher's PLSD, Immobility Time Average (min 3-6), OVX Sal vs. OVX drug: 0.7305
[4]
  p, Fisher's PLSD, Immobility Time Average (min 3-6), E2/P4 Sal vs. E2/P4 drug: 0.0196
  significance (*), Fisher's PLSD, Immobility Time Average (min 3-6), E2/P4 Sal vs. E2/P4 drug: * (* p<0.05)
Ovariectomized, hormone Vehicle, 1 week prophylactic drug, Forced Swim Test Day 2, K (10), (2R,6R)-HNK (0.025), FIG. 5F
  p, Fisher's PLSD, Immobility Time Average (min 3-6), Vehicle Sal vs. Vehicle drug: 0.9193
[5]
  p, Fisher's PLSD, Immobility Time Average (min 3-6), Vehicle drug vs. E2/P4 drug: 0.0089
  significance (*), Fisher's PLSD, Immobility Time Average (min 3-6), Vehicle drug vs. E2/P4 drug: ** (** p<0.01)
[6]
  p, Immobility Time (min 1): 0.9401
  p, Immobility Time (min 2): 0.6027
  p, Immobility Time (min 3): 0.5146
  p, Immobility Time (min 4): 0.9632
  p, Immobility Time (min 5): 0.6706
  p, Immobility Time (min 6): 0.7202
  p, Immobility Time Average (min 3-6): 0.6884
[7]
  *, Immobility Time (min 1): *** (*** p<0.0001)
  *, Immobility Time (min 2): ** (** p<0.01)
  *, Immobility Time (min 3): ** (** p<0.01)
  *, Immobility Time (min 4): ** (** p<0.01)
  *, Immobility Time (min 5): ** (** p<0.01)
  *, Immobility Time (min 6): *** (*** p<0.0001)
  *, Immobility Time Average (min 1-6): *** (*** p<0.0001)
  p, Immobility Time (min 1): <0.0001
  p, Immobility Time (min 2): 0.0002
  p, Immobility Time (min 3): 0.0002
  p, Immobility Time (min 4): 0.0090
  p, Immobility Time (min 5): 0.0016
  p, Immobility Time (min 6): 0.0001
  p, Immobility Time Average (min 1-6): <0.0001
[8]
  p, Immobility Time (min 1): 0.9371
  p, Immobility Time (min 2): 0.5853
  p, Immobility Time (min 3): 0.7490
  p, Immobility Time (min 4): 0.6033
  p, Immobility Time (min 5): 0.9482
  p, Immobility Time (min 6): 0.9756
  p, Immobility Time Average (min 3-6): 0.9690
[9]
  *, Immobility Time (min 1): * (* p<0.05)
  p, Immobility Time (min 1): 0.0187
[10]
  p, Immobility Time (min 1): 0.6395
  p, Immobility Time (min 2): 0.9313
  p, Immobility Time (min 3): 0.7755
  p, Immobility Time (min 4): 0.5198
  p, Immobility Time (min 5): 0.9023
  p, Immobility Time (min 6): 0.5995
  p, Immobility Time Average (min 3-6): 0.8325
Same drug, Sham vs. ovariectomized, 1 week prophylactic drug, Forced Swim Test Day 2, K (10), (2R,6R)-HNK (0.025), FIG. 5C
  p, Fisher's PLSD, Immobility Time Average (min 3-6), Sham drug vs. OVX drug: 0.2375
[11]
  p, Fisher's PLSD, Immobility Time Average (min 3-6), Sham Sal vs. Sham drug: 0.0405
  significance (*), Fisher's PLSD, Immobility Time Average (min 3-6), Sham Sal vs. Sham drug: * (* p<0.05)
Female mice
  Immobility in the FST (Day 1 and Day 2) vs saline: Neither (R,S)-ketamine nor (2R,6R)-HNK significantly affected immobility time
  Prophylactic efficacy against stress-induced depressive-like behavior: significantly reduced stress-induced depressive-like behavior; also recorded: significantly decreased stress-induced depressive-like behavior; also recorded: effective prophylactics against a variety of stressors; also recorded: protect against stress-induced depressive-like behavior
[12]
  Immobility in the FST (Day 1 and Day 2) vs saline: did not reduce immobility levels
  Prophylactic efficacy against stress-induced depressive-like behavior: prophylactic against stress-induced depressive-like behavior
Female mice, 1 week before stressor
  Prophylactically effective dose in females: 10 mg/kg
Ovariectomized mice with cyclic E2 and P4 replacement, drug 1 week before CFC, listed as (R, S)-ketamine
  Immobility in the FST vs saline: significantly less immobile compared to control saline mice; also recorded: significantly reduced immobility
